These results are taken from patent US10583206B2, “Radioactive probe for detecting hydrogen sulfide” (KYUNGPOOK NATIONAL UNIVERSITY INDUSTRY-ACADEMIC COOPERATION …, priority 2015, dated 2020).

The test system of data set [1] is colon carcinoma cell CT-26. Kind of data set: Cellular uptake test under various NaHS concentrations (gamma counter). The class given is cell-based. Particulars: CT-26 cells. As to the method: Cellular drug uptake is an important prognostic factor in the diagnosis of diseases. Therefore, to examine cellular uptake of the ^64Cu-labeled complex compounds according to the present disclosure, experiments for measuring changes in the cellular uptake under various concentrations of hydrogen sulfide were performed.
A colon carcinoma cell CT-26 was seeded in each plate at a density of 5×10^6, and then 10 μCi-300 μCi of ^64Cu-labeled complex compound of Examples 1, 7 or 9 according to the present disclosure was treated thereto, followed by incubation for 10 minutes. The cells were washed with PBS, and then 0 μM, 1 μM, or 50 μM of NaHS solution was added thereto, followed by incubation for 5 minutes. Thereafter, the cells were washed with PBS, and then cells were removed from the plate by adding trypsin and EDTA, followed by centrifugation. Supernatants were discarded and radiation of remaining cells was measured by using a gamma counter.

The subject of data set [2] is Paw inflammation model. The class given is in vivo, Balb/c or ICR mice. As to the method: (1) Paw Pain Inflammation Model
A small amount of CFA (complete Freund's adjuvant) or formalin was injected into only one paw (right) of the hind paws of Balb/c or ICR mice to establish inflammation models. 1 day after injection of the inflammation inducer, the mice were used in imaging or other in vivo experiments.
It is a known fact that inflamed sites show high concentrations of hydrogen sulfide.
Nuclear medicine imaging was measured by using an Inveon PET/CT system of Siemens Healthcare, and optical imaging was measured by using IVIS spectrum CT equipment. Cherenkov radiation emitted from ^64Cu was measured by using a highly sensitive CCD (charge-coupled device) camera.
Imaging was measured for 1 minute to 5 minutes, and a radiation dose was about 50 μCi to 2000 μCi, and photographs were variously taken as needed, such as immediately after first injection, at 1 hour, 4 hours, and 24 hours later.

Data set [3] in a line: Hydrogen sulfide selectivity test: decomplexation by NaHCO3. The class given is physicochemical. The note with it: NaHCO3 (100 μM); 37° C. for 15 minutes. How it is done: (§1) In addition to hydrogen sulfide, many different anions, radicals, etc. exist in the body. Therefore, to examine selective reactivity of the ^64Cu-labeled complex compound according to the present disclosure for sulfide ions, the following experiment was performed.
(§2) About 45 μCi-55 μCi of the ^64Cu-labeled complex compound (250 μL of triple distilled water) was mixed with 100 μM of various anion solutions (250 μL of triple distilled water) including biothiol, and stirred at 37° C. for 15 minutes.
(§3) Formation of copper sulfide (^64CuS) was quantified by using a radio-TLC scanner.
(§4) Various biothiol or salt solutions were prepared by dissolving the compounds in triple distilled water.
(§5) In Table, concentrations of all biothiols and other competitive materials are 100 μM. Further, specific concentrations of biothiols, anions, and oxidants used in Table are as follows: [L-Cys (1 mM); L-Hcys (10 mM); GSH (10 mM); DL-dithiothretitol (DTT, 100 μM); L-ascorbic acid (L-AsA, 10 mM); 2-mercaptoethanol (2-ME, 10 mM); NaCl (10 mm); KI (1 mM); Na2S2O3 (1 mM); Na2S2O5 (1 mM); NaOAc (1 mM); H2O2 ([…]); NaClO4 (100 μM); NaHCO3 (100 μM); NaNO2 ([…]); NaN3 (100 μM); ATB 337 (100 μM); diallyl trisulphide (100 μM)].

Data set [4] in a line: Hydrogen sulfide selectivity test: decomplexation by ATB 337. The class given is physicochemical. Particulars: ATB 337 (100 μM); 37° C. for 15 minutes. As to the method: as §1, §2, §3, §4, §5
Data set [5] can be described thus: Hydrogen sulfide selectivity test: decomplexation by ME. The class given is physicochemical. Particulars: 2-mercaptoethanol; 100 μM or (2-ME, 10 mM); 37° C. for 15 minutes. As to the method: as §1, §2, §3, §4, §5
The nature of data set [6]: Hydrogen sulfide selectivity test: decomplexation by DAT (diallyl trisulphide). Particulars: DAT = diallyl trisulphide (100 μM); 37° C. for 15 minutes. The class given is physicochemical. As to the method:
as §1, §2, §3, §4, §5

A short description of data set [7]: Hydrogen sulfide selectivity test: decomplexation by H2O2. The class given is physicochemical. Particulars: H2O2 (100 µM); 37° C. for 15 minutes. As to the method:
as §1, §2, §3, §4, §5

Data set [8] can be described thus: Test of hydrogen sulfide selectivity (overall statements). The class given is physicochemical. As to the method:
as §1, §2, §3, §4, §5

Data set [9] in a line: Hydrogen sulfide selectivity test: decomplexation by NaNO2. The class given is physicochemical. Particulars: NaNO2 (100 µM); 37° C. for 15 minutes. As to the method:
as §1, §2, §3, §4, §5

Data set [10] is described as follows: Hydrogen sulfide selectivity test: decomplexation by Hcys. The class given is physicochemical. Particulars: 100 μM or L-Hcys (10 mM), 37° C. for 15 minutes. How it is done:
as §1, §2, §3, §4, §5

A short description of data set [11]: Hydrogen sulfide selectivity test: decomplexation by Kl. The note with it: 100 μM or KI (1 mM), 37° C. for 15 minutes. The class given is physicochemical. How it is done: as §1, §2, §3, §4, §5
Data set [12] can be described thus: Hydrogen sulfide selectivity test: decomplexation by DTT. The class given is physicochemical. Particulars: DL-dithiothretitol (DTT, 100 μM); 37° C. for 15 minutes. How it is done:
as §1, §2, §3, §4, §5

Data set [13] in a line: Hydrogen sulfide selectivity test: decomplexation by NaN3. The note with it: NaN3 (100 μM); 37° C. for 15 minutes. The class given is physicochemical. How it is done: as §1, §2, §3, §4, §5
Data set [14] in a line: Hydrogen sulfide selectivity test: decomplexation by Na2S2O5. The class given is physicochemical. The note with it: 100 μM or (1 mM), 37° C. for 15 minutes. As to the method:
as §1, §2, §3, §4, §5

Data set [15] can be described thus: Hydrogen sulfide selectivity test: decomplexation by NaOAc. The class given is physicochemical. The note with it: 100 μM or (1 mM), 37° C. for 15 minutes. How it is done: as §1, §2, §3, §4, §5
The nature of data set [16]: Hydrogen sulfide selectivity test: decomplexation by NaClO4. The class given is physicochemical. Particulars: NaClO4 (100 μM); 37° C. for 15 minutes. As to the method:
as §1, §2, §3, §4, §5

Data set [17] can be described thus: Test of hydrogen sulfide detection sensitivity (% decomplexation with NaHS, radio-TLC). Particulars: 37° C. for 15 minutes. The class given is physicochemical. How it is done:
To measure hydrogen sulfide detection sensitivity of the ^64Cu-labeled complex compound according to the present disclosure, the following experiment was performed.
About 45 μCi-55 μCi of ^64Cu-labeled complex compound (250 μL of triple distilled water) was mixed with various concentrations of NaHS solution (250 µL of triple distilled water), and stirred at 37° C. for 15 minutes (a total volume used in the reaction was equally 500 μL). After completion of the reaction, the resulting products were strongly stirred to mix appropriately.
Formation of copper sulfide (^64CuS) was confirmed by quantification of % decomplexation by using a radio-TLC scanner, and results are shown in the following Tables 2 and 3.

The nature of data set [18]: Test of hydrogen sulfide detection over time (^64CuS formation, radio-TLC). The class given is physicochemical. Further details: unit not given here. The note with it: 100 μM NaHS, 37° C. As to the method:
To examine reactivity of the ^64Cu-labeled complex compound according to the present disclosure over time, the following experiment was performed.
A detailed experimental method is as follows.
About 45 μCi-50 μCi of ^64Cu-labeled complex compound (250 μL of triple distilled water) was mixed with 100 μM of NaHS solution ([…] of triple distilled water), and stirred at 37° C. for 15 minutes. Formation of copper sulfide (^64CuS) was quantified by using a radio-TLC scanner.

Data set [19] in a line: Hydrogen sulfide selectivity test: decomplexation by Cys. The class given is physicochemical. Particulars: 100 μM or L-Cys (1 mM), 37° C. for 15 minutes. As to the method: as §1, §2, §3, §4, §5
Data set [20] can be described thus: Hydrogen sulfide selectivity test: decomplexation by GSH. The class given is physicochemical. The note with it: 100 μM or GSH (10 mM), 37° C. for 15 minutes. As to the method: as §1, §2, §3, §4, §5
Data set [21] is described as follows: Hydrogen sulfide selectivity test: decomplexation by Na2S2O3. The class given is physicochemical. The note with it: 100 μM or (1 mM), 37° C. for 15 minutes. As to the method: as §1, §2, §3, §4, §5
The nature of data set [22]: Hydrogen sulfide selectivity test: decomplexation by L-AsA. The class given is physicochemical. The note with it: L-ascorbic acid; 100 μM or (L-AsA, 10 mM); 37° C. for 15 minutes. As to the method: as §1, §2, §3, §4, §5
Data set [23] in a line: Hydrogen sulfide selectivity test: decomplexation by NaCl. The class given is physicochemical. Particulars: 100 μM or NaCl (10 mm), 37° C. for 15 minutes. How it is done: as §1, §2, §3, §4, §5
Data set [24] in a line: Retention/excretion after injection into sites on the backs of rats (optical imaging). The class given is in vivo. Particulars: about 0.48 mCi injected into sites on the backs of rats. How it is done:
Next, at the beginning of the second experiment, about 0.48 mCi of ^64Cu(II) ion, ^64CuS, ^64Cu-labeled complex compound according to Example 1, and ^64Cu-labeled complex compound according to Example 16 were injected into four sites on the backs of the same rats, respectively. Immediately, optical images were taken and shown in a lower left image of FIG. 4. A photograph taken after 4 hours was shown in a lower right image of FIG. 4.

As for `CC1=NC(C)CNC(C)(C)CC(C)=NC(C)CNC(C)(C)C1.[64Cu+2]` (stereo not shown) [Example 7], the “Uptake (radiation of remaining cells, gamma counter)” value in [1] (NaHS Concentration 0 μM) is reported as 20000; in [1] (NaHS Concentration 1 μM), 21000; in [1] (NaHS Concentration 50 μM), 23000. In addition, the “uptake in inflamed paw versus opposite paw” value in data set [2] (optical and nuclear medicine imaging performed 2 hours later) is “higher uptakes”.
For the molecule `C1C[N]2CCC[N]3CCC[N](C1)[64Cu]23` [Example 21], the “Decomplexation [%]” value in data set [3] stood at 0.9%; in data set [4], 6 ± 2%; in [5] it was 2 ± 2%; in data set [6], 49 ± 2%; in [7] it was 3%; in data set [9] it was 0.5%. For the same molecule, the “Decomplexation [%]” value in data set [10] was determined as 30 ± 5%; in data set [11] it was 0.3%; in [12] it was 25%; in [13], 0.5%; in data set [14], 4 ± 2%; in [15] it was 1%. The “Decomplexation [%]” value is reported as 2 ± 1% in data set [16]; 9 ± 3% in [19]; 33% in [20]; 3 ± 1% in data set [21]; 4 ± 2% in [22]; 0.4 ± 0.2% in data set [23]. For the same molecule, the “selective reactivity with hydrogen sulfide versus biothiol compounds or anions, in words” value in data set [8] was “did not selectively react with hydrogen sulfide”. Further, in data set [2] (optical imaging and nuclear medicine imaging), the “selective uptake in inflamed sites” value is “selective uptake”. Further, the “% decomplexation” value in [17] (NaHS 0 μM) is on record as 0%; in data set [17] (NaHS 1 μM) it was 0%; in data set [17] (NaHS 10 μM), 6.2%; in data set [17] (NaHS 15 μM) it was 10%; in data set [17] (NaHS 20 μM) it was 58%; in data set [17] (NaHS 50 μM), 63%. The “% decomplexation” value in [17] (NaHS 100 μM) was found to be 100%. Also, the “Formation of copper sulfide (^64CuS) over time” value is 52 in [18] (10 sec); 72 in [18] (30 sec); 100 in data set [18] (60 sec); 100 in [18] (5 min); 100 in [18] (10 min); 100 in [18] (15 min).
As for `[Cu+2]` [^64Cu(II) ion, reference compound], the “retention time relative to ^64CuS” value in data set [24] is reported as “about half of ^64CuS”. The “selective reactivity with hydrogen sulfide versus biothiol compounds or anions, in words” value in data set [8] is reported as “reacted with various biothiol compounds or anions”.
For `[Cu+2].[S-2]` [^64CuS, copper sulfide (^64CuS)], the “excretion from / retention in the body, in words” value in [24] (images immediately and after 4 hours) is “remains for a long time in the body”.
